Tests used:
[1] = molecular target: SARS-CoV-2 Main Protease (SARS-CoV-2) (UniProt P0DTD1)
[2] = molecular target: SARS-CoV-2 Main Protease (SARS-CoV-2) (UniProt P0DTD1); remark: listed apart in the source
trypsin = trypsin (UniProt P07477)
Sequence of trypsin (P07477 whole entry, looked up): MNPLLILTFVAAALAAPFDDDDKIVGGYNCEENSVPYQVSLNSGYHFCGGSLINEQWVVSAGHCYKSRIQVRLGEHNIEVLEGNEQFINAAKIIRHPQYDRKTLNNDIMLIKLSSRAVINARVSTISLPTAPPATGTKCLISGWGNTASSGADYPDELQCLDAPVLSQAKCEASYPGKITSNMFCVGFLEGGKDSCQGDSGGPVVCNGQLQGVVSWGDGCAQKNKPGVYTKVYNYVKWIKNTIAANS

SMILES	inhibition ([1]; 50.0 µM) [%]	inhibition ([2]; 20.0 µM) [%]	inhibition ([2]; 50.0 µM) [%]	relative solubility at 20 uM	relative solubility at 100 uM	inhibition ([1]; 20.0 µM) [%]	IC50 [1] [µM]	IC50 (trypsin) [µM]	IC50 [2] [µM]
Cn1cc(S(N)(=O)=O)cc1CC(=O)Nc1cccc(C(=O)NCc2ccccn2)c1	0	-21.5	-0.596	1	1				
C=CC(=O)N(c1ccc2ncsc2c1)C(C(=O)Nc1ccc(Cl)cc1)c1cccnc1 (configuration not stated)		8.95	25.3	0.87	0.69	2.57			
Cc1ccncc1NC(=O)Cc1ccc(S(N)(=O)=O)cc1	-0.94	4.76	10.9	1	1	6.42			
C=CC(=O)N(c1ccc(C(C)(C)C)cc1)C(C(=O)NC(C)(C)C)c1cncc(C(C)(F)F)c1 (configuration not stated)	0	-11.5	-15.5	0.99	0.96	0			
CCNc1ncc(C#N)cc1CN1CCN(C(=O)CCl)CC1	99.7	99.7	102	0.98	0.95		1.64		
COc1ccncc1NC(=O)C(C)(C)c1cc(F)cc(C#N)c1	40.6	20	30.8	0.99	1				
NS(=O)(=O)c1ccc(N2CCC(c3ccncc3)CC2)cc1	1.84	0.875	1.65	1	0.94	1.05			
O=C1[C@H](Nc2nccn3cnnc23)CCN1c1cccc(Cl)c1 (stereo in doubt)	0	3.55	5.29	1	0.98				
C=CC(=O)N(c1ccc(C2(C)CC2)cc1)C(C(=O)Nc1ccc(OC)cc1C)c1cccnc1 (configuration not stated)	0		6.08	1	0.52	0			
C=CC(=O)N(c1ccc(C(C)(C)C)cc1)C(C(=O)Nc1ccc2c(c1)OCO2)c1cccnc1 (configuration not stated)	100	41.1	60.4				62.1	72.5	
Cc1ccncc1NC(=O)Cc1cccc(OC(F)(F)F)c1	12.6	-3.16	-22.5	0.98	0.98				
N#Cc1cncc(NC(=O)Nc2cccnc2)c1	17.4	7.07	17.1	1	1				
C=CC(=O)N(c1ccc(C(C)(C)C)cc1)C(C(=O)NC(C)(C)C)c1cncc(Br)c1C (configuration not stated)	35.3	-4.32	7.84	0.98	0.92	12.9			
Cc1ccccc1C(C(=O)NCC(O)Cn1ccnn1)c1ccccc1 (configuration not stated)		0.424	4.24	1	1.01	0			
COc1ccccc1OCC(C)NC(=O)c1cc(=O)[nH]c2cc(F)ccc12 (configuration not stated)	22	46.9	78.4	1	0.99				33
CS(=O)(=O)c1ncc(Cl)c(C(=O)Nc2ccccc2Cc2ccccc2)n1	100	96.3	94.7	0.96	0.79		0.826		
Cc1ccncc1NC(=O)C(C)c1cccc(C#N)c1 (configuration not stated)	58.4	35.4	61.4	1	1	21	45.3		
O=C(Cc1cccc(Cl)c1)Nc1nncs1	0	-9.94	-3.05	1	0.78				

SMILES	inhibition ([1]; 50.0 µM) [%]	inhibition ([2]; 20.0 µM) [%]	inhibition ([2]; 50.0 µM) [%]	relative solubility at 20 uM	relative solubility at 100 uM	inhibition ([1]; 20.0 µM) [%]	IC50 [1] [µM]	IC50 (trypsin) [µM]	IC50 [2] [µM]
CNC(=O)OC1CCN(S(=O)(=O)c2ccccc2)CC1	0		-16.3	1	1	4.89			
Cc1c(C(=O)NC(CC(=O)O)c2cccc(Cl)c2)cnc2ccccc12 (configuration not stated)	8.52	-13	6.12	1	1				
O=C(Cc1c[nH]c2ncccc12)Nc1cccc(Cl)c1		5.95	9.34	0.99	0.97	0			
CN1CCC(C(=O)NC2CCCCC2NC(=O)c2ccccc2)CC1 (configuration not stated)	0		-15.4	0.98	0.99	0			
O=C(NC(Cc1ccccc1)C(=O)NCc1ccno1)OCc1ccccc1 (configuration not stated)	0		50.6	0.98	0.85	0			
Nc1cccc(C2CN(C(=O)CCl)Cc3ccccc32)c1 (configuration not stated)	100	48	53.4	0.97	0.96		11.4		
COc1ncccc1N(C)C(=O)C1CCOc2ccc(Cl)cc21 (configuration not stated)	0	-2.61	2.54	1	0.98				
O=C(Cc1ccc(Cl)s1)Nc1cccnc1		0.922	11.5	1	1	0			
Cc1nnc(C2Cc3ccccc3CN2C(=O)CCl)o1 (configuration not stated)	18.1	16.3	41.9	0.99	0.99				
COc1ccc(N2CCN(C(=O)c3cc(=O)[nH]c4ccccc34)CC2)cc1	51.4	61.4	81.7	1	1		95.7		
N#Cc1cccc(NC(=O)Nc2cccnc2)c1		6.21	10.3	1	1	0			
CCc1nnnn1-c1ccccc1NC(=O)C1(c2cncc(Br)c2)CC1	0		10.2	1	1	0			
O=C(CCl)N1CCC(c2nc(-c3cccnc3)nc3ccccc23)CC1	100	56.8	71.5	0.92	0.8		14.9		
Cc1ccc(O)cc1NC(=O)C(C)(C)c1cccc(F)c1	-0.631	1.12	-11	1	0.92				
O=C(Cc1cccc(Cl)c1)Nc1cnccc1O	0	0.0135	-2.06	1	1				
C=CC(=O)N(c1ccc2ncsc2c1)C(C(=O)Nc1ccc(OC)cc1)c1cccnc1 (configuration not stated)		4.02	15.4	0.92	0.87	0			
N#Cc1cnn(-c2ccccc2NC(=O)Cc2ccn[nH]2)c1N		-9.14	2.96	1	0.96	0			
C=CC(=O)N(c1cc(C(C)(C)C)n[nH]1)C(C(=O)Nc1ccc(Cl)cc1)c1cccnc1 (configuration not stated)		6.12	19.5	0.78	0.68	0			
